Measurements published in PMC8290497, “Taxifolin, an Inhibitor of Sortase A, Interferes With the Adhesion of Methicillin-Resistant Staphylococcal aureus” (Frontiers in Microbiology, 2021).
pKd: −log10 of the molar value. In brackets after ≈: the same amount, converted by molar mass.

Assays:
[1] = test system: S. aureus USA300; test: Broth microdilution susceptibility assay (MIC); type: cell-based; settings: Staphylococcus aureus, S. aureus USA 300
Experimental: (§1) A broth microdilution assay was performed to determine the minimum inhibitory concentration (MIC) of Tax for S. aureus USA300, as described elsewhere ([Sader et al., 2013]; [Delgado-Valverde et al., 2017]). A growth curve was further evaluated by adding various concentrations of Tax (0–200 μM) to a bacterial culture, then incubating until an OD600 of 0.3 had been reached. S. aureus USA300 and ΔsrtA were used as controls. The OD600 value was recorded for each sample at 1 h intervals for a total of 24 h. The growth rate between S. aureus treated with Tax and S. aureus USA300 was also calculated at each time point.

[2] = test system: S. aureus USA300; test: Growth curve and growth rate; type: cell-based, Staphylococcus aureus
Experimental: as §1
(§2) FIGURE 2 Growth curve and cytotoxicity. (A) Growth curves of S. aureus USA300 and the ΔsrtA group with different concentrations of Tax. (B) Growth rate of S. aureus USA300 and S. aureus treated with Tax (25 μM). (C) Percent cell viability of HEK293 (purple) and HepG2 (blue) cells were measured using a CCK-8 assay after incubation with Tax for 24 h.

[3] = test system: HepG2 cells; test: CCK-8 cytotoxicity assay, HepG2; type: cell-based
Experimental: Cytotoxicity was determined using a cell counting kit-8 assay (CCK-8, US EVERBRIGHT, Suzhou, China), as described previously ([Xiao et al., 2018]). HEK293 or HepG2 cells were seeded in 96-well plates (Corning, United States) at a density of 5 × 10^4 cells/well, then incubated at 37°C in an atmosphere containing 5% CO2 for 24 h. The culture medium was then exchanged with fresh medium containing different concentrations of Tax (0–200 μM) or vehicle and incubated for an additional 24 h. CCK-8 solution (10 μL) was carefully added then incubated for 4 h in an incubator at 37°C. The OD value at 450 nm was measured to calculate cell viability.
as §2

[4] = test system: internalization of S. aureus into A549 cells; test: Invasion assay of S. aureus into A549 cells; type: cell-based, Staphylococcus aureus; settings: 200 μM Tax; P < 0.001
Experimental: A549 human lung carcinoma cells were seeded at a density of 2.5 × 10^5 per well in 24-well plates and placed in an incubator at 37°C in an atmosphere containing 5% CO2 for 20 h. Cultures of S. aureus were mixed with different concentrations of Tax then cultured at 37°C until an OD600 of 1.0 was achieved. The A549 cells were resuspended in medium and aliquots of bacterial suspension were added to each well to a total concentration of 2 × 10^7°CFU/mL. After incubation for 2 h, the invasion assay was terminated by incubation with 300 μg/mL gentamicin for 30 min. The cells were then lysed after washing and coated on a BHI agar plate. After incubation at 37°C for 12 h, the number of CFUs were counted manually.
FIGURE 3 Effect of SrtA inhibitor on virulence-related phenotypes in S. aureus Newman strain. (A) Impact of Tax on the ability of S. aureus to adhere to fibrinogen. (B) Biofilm formation of S. aureus in the presence of different concentrations of Tax. (C) Mature biofilms of S. aureus in the presence of different concentrations of Tax. The ΔsrtA group represented the positive control. (D) Tax affects internalization of S. aureus into A549 cells. […] The number of viable S. aureus in the cells was quantified by serial dilution on TSA agar plates. […] Error bars represent means ± SD of three replicates. *P < 0.05, **P < 0.01, ***P < 0.001 calculated with a two-tailed Student’s t-test.

[5] = target: T1, SrtA (Staphylococcus aureus, UniProt Q2FV99); test: Localized surface plasmon resonance (LSPR); type: binding
T1 construct: 6xHis; made in house; host or cells: E. coli BL21 (DE3), plasmid pET28a-SrtA
Experimental: The interaction between Tax and SrtA was determined using an OpenSPR localized surface plasmon resonance (LSPR) instrument (Nicoya, Canada) at 25°C, as described previously ([Panneer Selvam et al., 2018]; [Song et al., 2019]). Briefly, SrtA proteins were captured on a COOH chip using a standard amine coupling system. A 200 μL aliquot of blocking buffer was added to rinse the sample ring and to remove any air. After a stable baseline had been achieved, the affinity between Tax and SrtA was measured by injecting 20, 40, 80, 160, or 320 μM Tax. The kinetic parameters of the binding reaction were calculated and visualized using TraceDrawer software ([Yang et al., 2011]).
FIGURE 4 Expression of SrtA in the presence of Tax and the interaction of different concentrations of Tax with SrtA. (A) Western blot analysis of SrtA protein from S. aureus treated with various concentrations of Tax and grayscale analysis of SrtA protein bands. (B) LSPR analysis verified the binding affinity of Tax with SrtA. Error bars represent means ± SD of three replicates. ***P < 0.001 calculated with a two-tailed Student’s t-test.

[6] = target: T2, D170A-SrtA mutant (Staphylococcus aureus, UniProt Q2FV99, D170A); test: Fluorescence quenching assay, D170A-SrtA; type: binding
T2 construct: 6xHis; made in house; host or cells: E. coli BL21 (DE3), mutated pET28a-SrtA
Experimental: (§3) Site-directed mutagenesis for D170A-SrtA and Q172A-SrtA was performed based on plasmid pET28a-SrtA using a multi-site mutagenesis kit (Transgen, Beijing, China) and the desired mutation was verified via DNA sequencing by Sangon Biotech (Shanghai, China). Subsequently, recombinant SrtA and the SrtA mutant proteins (D170A and Q172A) were expressed and purified in accordance with a previously published procedure ([Zhulenkovs et al., 2014]). Briefly, bacteria were cultured until an OD600 value of 0.8 was achieved, after which 0.5 mM isopropyl-β-D-thiogalactopyranoside (IPTG) was added to induce recombination of SrtA at 16°C overnight. Because the recombinant protein had 6 × His tags, it was purified using a nickel-nitrilotriacetic acid (Ni-NTA) purification system. Imidazole (10 mM) was used to wash away excess protein, while 400 mM imidazole was employed to elute the target protein.
(§4) Molecular modeling studies highlight the benefits of performing site-directed mutagenesis studies. Therefore, fluorescence quenching experiments were utilized to determine the binding affinity of Tax with SrtA and SrtA mutants (D170A, Q172A).

[7] = target: T3, Q172A-SrtA mutant (Staphylococcus aureus, UniProt Q2FV99, Q172A); test: Fluorescence quenching assay, Q172A-SrtA; type: binding
T3 construct: 6xHis; made in house; host or cells: E. coli BL21 (DE3), mutated pET28a-SrtA
Experimental: as §3, §4

O=C1c2c(O)cc(O)cc2OC(c2ccc(O)c(O)c2)C1O (stereo not shown) [Tax, taxifolin]
MIC [1]: 512 µg/mL (≈ 1680 µM) | toxicity toward S. aureus ([2]; 200 μM): did not display toxicity | effect on the growth of S. aureus ([2]; at a concentration of IC50 (25 μM), P > 0.05): no significant effect | toxicity toward mammalian cells (HepG2) ([3]; 200 μM): did not display toxicity | cytotoxicity toward HepG2 cells ([3]; at 24.53 ± 0.42 μM, 24 h): no significant cytotoxicity | number of bacteria entering A549 cells [4]: reduced significantly | pKd [5]: 3.78 | kon ([5]; read-out: Ka): 22.3 M⁻¹ s⁻¹ | pKd [6]: 4.43 | pKd [7]: 4.59
